# Experimental data reported in paper PMC5855800, “Charged N-terminus of Influenza Fusion Peptide Facilitates Membrane Fusion” (International Journal of Molecular Sciences, 2018).
# “And” between values parts separate entries of the source, which are not always exact repeats. Equal values may be shown once. Read-outs that look alike come from different tables or passages of the source.
# What was measured:
# [1] = pH 5
# [2] = assay type: binding
# [3] = POPC vesicles; cited from earlier work
# Excerpt: Since the early observations by Lear and de Grado [2] showing that membrane fusion of lipid vesicles can be accomplished by a short N-terminal synthetic fragment of HA2 subunit, such fusion peptides (HAfp) have been extensively used as full-length hemagglutinin mimicking species in the studies on membrane fusion. […] This is ...
# [4] = NMR, cited from earlier work
# Excerpt: These values are considerably higher than expected in a hydrophobic environment (8.00 ± 0.03). […] T ...
Compound,NBD-C6-PE fluorescence lifetime with peptide [1] [ns],Gibbs binding free energy ΔGx^0 ([2]; pH 5.0) [kcal/mol],Gibbs binding free energy ΔGx^0 ([2]; pH 7.4) [kcal/mol],"Ability to induce membrane fusion, in words [3]",pK for G1 N-terminal amino group ([4]; in the presence of dioleoyl phosphocholine (PC) lipids),Difference of ∆G^0 between N-acetylated and unmodified peptide of the same length ([2]; pH 5.0),Partition coefficient Kx·10^−3 ([2]; 22.0 °C),pK for G1 N-terminal amino group ([4]; in the presence of dodecylphosphatidyl (DPC) detergents)
CC[C@H](C)[C@H](NC(=O)[C@H](C)NC(=O)CNC(=O)[C@H](Cc1ccccc1)NC(=O)[C@H](CC(C)C)NC(=O)CN)C(=O)N[C@@H](C)C(=O)NCC(=O)N[C@@H](Cc1ccccc1)C(=O)N[C@H](C(=O)N[C@@H](CCC(=O)O)C(=O)NCC(=O)NCC(=O)N[C@@H](Cc1c[nH]c2ccccc12)C(=O)N[C@@H](CCC(N)=O)C(=O)NCC(=O)N[C@@H](CCSC)C(=O)N[C@H](C(=O)N[C@@H](CC(=O)O)C(=O)NCC(N)=O)C(C)C)[C@@H](C)CC [20N+],6.78 ± 0.20,-7.84 ± 0.072,-7.19 ± 0.096,able to induce membrane fusion,8.69,–,–,–
CC[C@H](C)[C@H](NC(=O)[C@H](C)NC(=O)CNC(=O)[C@H](Cc1ccccc1)NC(=O)[C@H](CC(C)C)NC(=O)CNC(C)=O)C(=O)N[C@@H](C)C(=O)NCC(=O)N[C@@H](Cc1ccccc1)C(=O)N[C@H](C(=O)N[C@@H](CCC(=O)O)C(=O)NCC(=O)NCC(=O)N[C@@H](Cc1c[nH]c2ccccc12)C(=O)N[C@@H](CCC(N)=O)C(=O)NCC(=O)N[C@@H](CCSC)C(=O)N[C@H](C(=O)N[C@@H](CC(=O)O)C(=O)NCC(N)=O)C(C)C)[C@@H](C)CC [20Ac],–,-7.55 ± 0.048,-6.86 ± 0.048,–,–,–,–,–
CC[C@H](C)[C@H](NC(=O)[C@H](C)NC(=O)CNC(=O)[C@H](Cc1ccccc1)NC(=O)[C@H](CC(C)C)NC(=O)CNC(C)=O)C(=O)N[C@@H](C)C(=O)NCC(=O)N[C@@H](Cc1ccccc1)C(=O)N[C@H](C(=O)N[C@@H](CCC(=O)O)C(=O)NCC(=O)NCC(=O)N[C@@H](Cc1c[nH]c2ccccc12)C(=O)N[C@@H](CCC(N)=O)C(=O)NCC(=O)N[C@@H](CCSC)C(=O)N[C@H](C(=O)N[C@@H](CC(=O)O)C(=O)NCC(=O)N[C@@H](Cc1c[nH]c2ccccc12)C(=O)N[C@@H](Cc1ccc(O)cc1)C(=O)NCC(N)=O)C(C)C)[C@@H](C)CC [23Ac],6.66 ± 0.25,-8.41 ± 0.072,-8.94 ± 0.048,–,–,~ 2.3 kJ/mol,–,–
CC[C@H](C)[C@H](NC(=O)[C@H](C)NC(=O)CNC(=O)[C@H](Cc1ccccc1)NC(=O)[C@H](CC(C)C)NC(=O)CN)C(=O)N[C@@H](C)C(=O)NCC(=O)N[C@@H](Cc1ccccc1)C(=O)N[C@H](C(=O)N[C@@H](CCC(=O)O)C(=O)NCC(=O)NCC(=O)N[C@@H](Cc1c[nH]c2ccccc12)C(=O)N[C@@H](CCC(N)=O)C(=O)NCC(=O)N[C@@H](CCSC)C(=O)N[C@H](C(=O)N[C@@H](CC(=O)O)C(=O)NCC(=O)N[C@@H](Cc1c[nH]c2ccccc12)C(=O)N[C@@H](Cc1ccc(O)cc1)C(=O)NCC(N)=O)C(C)C)[C@@H](C)CC [23N+],6.55 ± 0.23,-7.86 ± 0.072,-7.67 ± 0.17,–,–,–,660 ± 80 and 480 ± 130,8.8
